Source: patent US20020032918A1, “Alteration of growth and adaptation under hypoxic conditions” (priority 2000, published 2002)

Experiments:
[1] = test system: seedlings of a submergence intolerant cultivar; settings: elongation response inhibited by spraying; cited from earlier work
SH2A gene expression = experiment: Northern blot analysis of SH2A transcript abundance in isolated deepwater rice stem segments treated with hormone or inhibitor solutions; format: cell-based, Oryza sativa L.
Protocol: Seeds of deepwater rice (Oryza sativa L., Pin Gaew 56) were obtained from the International Rice Research Institute (Los Baños, The Philippines). Plants were grown for 12 to 14 weeks as described (Sauter, 1997). All experiments were carried out under continuous light (200 μE/m^−2 s^−1) at 25° C. in a growth chamber. For submergence treatment, whole plants were placed in a 600 liter plastic barrel filled with tap water as described (Lorbiecke and Sauter, 1999). Control plants were kept in the same growth chamber. Analysis of hormone and inhibitor effects was performed using excised stem segments containing the upper highest growth responsive internode. (Raskin and Kende, 1984). Stem segments were incubated in 150 ml beakers with 25 ml aqueous solutions containing the indicated concentrations of gibberellin A3 (GA3) or the hormone precursor ethephon (2-chlorethanephosphoric acid, E) or water alone as a control. Control segments were incubated for 0.5 or 3 h in water. For ethephon treatment stem segments were preincubated for 0.5 h in water before adding ethephon for 2.5 h.
To guarantee high humidity, the beakers were placed in plastic cylinders. Ethylene action was inhibited using 2,5-norbornadiene (bicyclo[2.2.1]hepta-2,5-diene, NBD) at a concentration of 50 μl/l in the gas phase as described (Lorbiecke and Sauter, 1999).
To inhibit protein synthesis, stem sections were incubated with aqueous solutions of cycloheximide for 3 hours at the concentrations indicated.
To determine submergence-dependent gene expression, mRNA abundance of SH2A and SH2B was analysed by RNA gel blot hybridization. RNA was isolated from different zones of the youngest internode and from adventitious roots of the third node from airgrown or partially submerged deepwater rice plants. Thus, tissue sections of the highest internode, 0-5 mm above the second node and containing the intercalary meristem; 5-15 mm above the second node containing the elongation zone; and 15-30 mm above the second node and containing the differentiation zone were used (Lorbiecke and Sauter, 1997). Adventitious roots of the third node were isolated as described (Lorbiecke and Sauter, 1999). The tissues were immediately frozen in liquid nitrogen and stored at −70° C. until RNA extraction. Total RNA was isolated with the TRIzol reagent (Gibco BRL) and precipitated with 4 M LiCl as described (Puissant and Houdebine, 1990, Lorbiecke and Sauter, 1999). RNA separation and Northern blot hybridization were carried out as described previously (Lorbiecke and Sauter, 1998). For RNA blot analysis, 20 μg of total RNA was separated by electrophoresis on a 1% (w/v) agarose gel containing 6% formaldehyde. The RNA was blotted to a nylon membrane (Hybond N+; Amersham, Braunschweig, Germany) according to Lorbiecke and Sauter (1998). For hybridization, gene-specific cDNA-fragments covering the 3′-regions of SH2A (nt 496-867) and SH2B (nt 513-980) were random prime labelled with 32P using the ‘Rediprime Labelling Kit’ (Amersham, Braunschweig, Germany). Hybridization was carried out overnight at 68° C. in 1% SDS, 1 M NaCl, 10% (w/v) dextran sulfate and heat-denatured salmon sperm DNA. The blots were washed once in 1× SSC (0.15 M NaCl, 15 mM Na-citrate, pH 7.0) at 68° C. and once in 1× SSC, 1% (w:v) SDS at 68° C. for 10 min each (Sauter, 1997).
To analyse the hormone-dependent expression of the SH2A gene, isolated stem segments containing the youngest internode were treated with different hormone or inhibitor solutions for 2.5 hours. Total RNAs were isolated from the regions containing the intercalary meristem and the elongation zone and were analysed for SH2A transcript abundance (FIG. 8a).

[2] = test system: endogenous ABA and GA1 levels in internodes; settings: cited from earlier work

**Q.** Which survival of seedlings [1] does the source give for `CC(C)(C)[C@@H](O)[C@@H](Cc1ccc(Cl)cc1)n1cncn1` (racemic) [paclobutrazol] here?
**A.** Its survival of seedlings is “greatly enhanced”.

**Q.** For `C=C1C[C@]23C[C@@]1(O)CC[C@H]2[C@@]12C=C[C@H](O)[C@@](C)(C(=O)O1)[C@H]2[C@@H]3C(=O)O` [GA3, gibberellin A3], which SH2A transcript levels (SH2A gene expression; incubation with 50 μM GA3, after 2.5 h, compared with controls) is on record?
**A.** Its SH2A transcript levels is “did not result in increased SH2A transcript levels”.

**Q.** What does the source list for `C=C` [ethylene]?
**A.** increase of endogenous GA1 levels ([2]; at the same time (within three hours)): four-fold; reduction of endogenous ABA levels in internodes ([2]; within three hours of application of ethylene): 75%

**Q.** Which “induction of SH2A gene expression in the presence of the protein synthesis inhibitor” value (SH2A gene expression; 150 μM ethephon with cycloheximide, intercalary meristem) does the source give for `C[C@@H]1C[C@@H]([C@H](O)CC2CC(=O)NC(=O)C2)C(=O)[C@@H](C)C1` [cycloheximide] here?
**A.** Its value is “occurred”.

**Q.** What about the “cycloheximide concentration required for SH2A gene induction” value (SH2A gene expression; dose response, 3 h, intercalary meristem) of the same molecule?
**A.** The value was at least 20 µg/mL.

**Q.** And the “SH2A transcripts after treatment with CHX alone” value (SH2A gene expression; stem segments, 3 h, intercalary meristem)?
**A.** Its value is “accumulation of SH2A transcripts”.

**Q.** Which “SH2A mRNA levels between 2 and 6 hours” value (SH2A gene expression; 150 μM ethephon, meristem and elongation zone) does the source give for `O=P(O)(O)CCCl` [ethephon, 2-chloroethanephosphoric acid] here?
**A.** The value was “declined to control levels”.

**Q.** And the “time of maximal SH2A mRNA abundance” value (SH2A gene expression; 150 μM ethephon, meristem and elongation zone, RNA at 1 hour intervals)?
**A.** The value was 2 h.

**Q.** What about the “lowest ethephon concentration inducing SH2A transcript accumulation” value (SH2A gene expression; 2.5 hours, 0.015-150 μM tested, intercalary meristem) of the same molecule?
**A.** Its value is 1.5 µM.

**Q.** What about the SH2A transcript levels (SH2A gene expression; stem segments treated with 150 μM ethephon, 2.5 h, intercalary meristem and elongation zone) of the same molecule?
**A.** Its SH2A transcript levels is “strong increase”.

**Q.** For `C1=CC2C=CC1C2` [norbornadiene, bicyclo[2.2.1]hepta-2,5-diene], which SH2A transcript levels (SH2A gene expression; ethephon in combination with norbornadiene at 50 μl/l in the gas phase) is on record?
**A.** Its SH2A transcript levels is “reduced to control levels”.
